Data from ChEMBL document CHEMBL5321202, “Design, synthesis and anti-AD effects of dual inhibitor targeting glutaminyl cyclase/GSK-3β” (Eur J Med Chem, 2023).
pIC50: −log10 of the molar value. The source made the active and inactive calls. The calls are words filed in the database; no cut-off is given here.

Key:
[1] = biological target: Glycogen synthase kinase-3 beta (Homo sapiens, UniProt P49841); test: Inhibition of GSK3beta (unknown origin) activity assessed as fluorescence intensity by ADP-Glo Kinase Assay
[2] = biological target: Glutaminyl-peptide cyclotransferase (Homo sapiens, UniProt Q16769); test: Inhibition of human glutaminyl cyclase activity assessed as fluorescence using H-Gln-AMC substrate
[3] = In vivo inhibition of GSK3beta activity in cortex region of 3 x Tg-AD mouse model at 8 mg/kg, ip every 48 hrs once for 45 days by Western blot analysis relative to control; format: functional; design: scale not given: the % may be the effect or the level left; conditions: time 45 day
Mus musculus = species: Mus musculus; conditions: dose 8.0 mg/kg, route ip, time 45.0 day

Chain of Glycogen synthase kinase-3 beta (P49841 whole entry): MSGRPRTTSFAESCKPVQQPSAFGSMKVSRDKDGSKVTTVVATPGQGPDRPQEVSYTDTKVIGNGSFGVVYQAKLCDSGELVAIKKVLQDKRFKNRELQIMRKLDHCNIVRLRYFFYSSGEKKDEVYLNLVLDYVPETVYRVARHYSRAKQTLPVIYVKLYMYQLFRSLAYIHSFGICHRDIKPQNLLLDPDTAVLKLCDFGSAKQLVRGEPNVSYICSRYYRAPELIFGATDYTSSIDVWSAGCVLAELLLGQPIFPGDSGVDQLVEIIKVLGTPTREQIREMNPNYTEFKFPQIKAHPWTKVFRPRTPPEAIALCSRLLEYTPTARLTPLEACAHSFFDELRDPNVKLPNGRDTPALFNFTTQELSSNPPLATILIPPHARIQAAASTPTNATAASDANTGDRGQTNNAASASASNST
Chain of Glutaminyl-peptide cyclotransferase (Q16769 whole entry): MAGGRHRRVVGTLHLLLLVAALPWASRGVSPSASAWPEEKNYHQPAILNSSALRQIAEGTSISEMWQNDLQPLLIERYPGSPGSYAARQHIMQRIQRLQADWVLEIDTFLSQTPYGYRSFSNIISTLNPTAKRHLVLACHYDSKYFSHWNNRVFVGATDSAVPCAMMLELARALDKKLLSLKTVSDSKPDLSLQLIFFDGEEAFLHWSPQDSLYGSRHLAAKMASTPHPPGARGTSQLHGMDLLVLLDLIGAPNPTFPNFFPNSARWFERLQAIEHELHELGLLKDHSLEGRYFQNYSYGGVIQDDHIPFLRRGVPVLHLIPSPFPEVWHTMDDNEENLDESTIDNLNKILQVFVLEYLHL

| SMILES | pIC50 [1] | pIC50 [2] | Activity [3] | inhibition (Mus musculus) |
| --- | --- | --- | --- | --- |
| COc1ccc(C2=C(c3cn(CCCn4ccnc4)c4ccc(Br)cc34)C(=O)NC2=O)cc1OC | 7.29 | 5.50 | – | – |
| COc1ccc(C2=C(c3cn(CCCn4ccnc4)c4ccc(C)cc34)C(=O)NC2=O)cc1 | 4.70 | 5.21 | – | – |
| COc1ccc2c(c1)c(C1=C(c3ccc4ccccc4c3)C(=O)NC1=O)cn2CCCn1ccnc1 | 7.23 | 5.30 | – | – |
| COc1ccc2c(c1)c(C1=C(c3ccc(C)cc3)C(=O)NC1=O)cn2CCCn1ccnc1 | 7.00 | 5.05 | – | – |
| COc1ccc2c(c1)c(C1=C(c3ccc(F)cc3)C(=O)NC1=O)cn2CCCn1ccnc1 | 6.82 | 6.44 | – | – |
| CC(C)(C)c1ccc(C2=C(c3cn(CCCn4ccnc4)c4ccc(Br)cc34)C(=O)NC2=O)cc1 | 6.38 | 5.09 | – | – |
| Cc1ccc(C2=C(c3cn(CCCn4ccnc4)c4ccccc34)C(=O)NC2=O)cc1 | 4.81 | 5.36 | – | – |
| O=C1NC(=O)C(c2cn(CCCn3ccnc3)c3ccccc23)=C1c1ccc2ccccc2c1 | 5.04 | 5.45 | – | – |
| COc1ccc(C2=C(c3cn(CCCn4ccnc4)c4ccc(OC)cc34)C(=O)NC2=O)cc1 | 7.85 | 5.23 | – | – |
| O=C1NC(=O)C(c2cn(CCCn3ccnc3)c3ccc(Br)cc23)=C1c1ccc2ccccc2c1 | 7.16 | 5.53 | – | – |
| Cc1ccc2c(C3=C(c4ccc5ccccc5c4)C(=O)NC3=O)cn(CCCn3ccnc3)c2c1 | 6.85 | 4.97 | – | – |
| O=C1NC(=O)C(c2cn(CCCn3ccnc3)c3ccccc23)=C1c1ccccc1 | 7.85 | 5.55 | – | – |
| O=C1NC(=O)C(c2cn(CCCn3ccnc3)c3ccc(Br)cc23)=C1c1cc(F)c(F)cc1F | 6.92 | 5.63 | – | – |
| Cc1cc(C)c(C2=C(c3cn(CCCn4ccnc4)c4ccc(Br)cc34)C(=O)NC2=O)c(C)c1 | 6.96 | 5.63 | – | – |
| O=C1NC(=O)C(c2cn(CCCn3ccnc3)c3ccc(Br)cc23)=C1c1cccs1 | 7.05 | 5.98 | – | – |
| Cc1ccc(C2=C(c3cn(CCCn4ccnc4)c4cc(C)ccc34)C(=O)NC2=O)cc1 | 7.32 | 4.93 | – | – |
| COc1ccc(C2=C(c3cn(CCCn4ccnc4)c4ccccc34)C(=O)NC2=O)cc1 | 7.40 | 5.13 | – | – |
| Cc1ccc(C2=C(c3cn(CCCn4ccnc4)c4ccc(C)cc34)C(=O)NC2=O)cc1 | 5.11 | 5.26 | – | – |
| O=C1NC(=O)C(c2cn(CCCn3ccnc3)c3ccc(Br)cc23)=C1c1ccc(F)cc1 | 6.85 | 5.59 | – | – |
| O=C1NC(=O)C(c2cn(CCCn3ccnc3)c3ccc(Br)cc23)=C1c1ccc2c(c1)OCO2 | 7.36 | 5.60 | – | – |
| O=C1NC(=O)C(c2cn(CCCn3ccnc3)c3ccc(Br)cc23)=C1c1cc(C(F)(F)F)cc(C(F)(F)F)c1 | 6.23 | 5.16 | – | – |
| O=C1NC(=O)C(c2cn(CCCn3ccnc3)c3ccccc23)=C1c1ccccc1[N+](=O)[O-] | 4.45 | 5.65 | – | – |
| COc1ccc(C2=C(c3cn(CCCn4ccnc4)c4cc(C)ccc34)C(=O)NC2=O)cc1 | 7.01 | 5.15 | – | – |
| Cc1ccc2c(c1)c(C1=C(c3ccc(F)cc3)C(=O)NC1=O)cn2CCCn1ccnc1 | 4.63 | 5.36 | – | – |
| COc1ccc2c(c1)c(C1=C(c3ccccc3[N+](=O)[O-])C(=O)NC1=O)cn2CCCn1ccnc1 | 7.47 | 5.00 | – | – |
| COc1ccc(C2=C(c3cn(CCCn4ccnc4)c4ccc(Br)cc34)C(=O)NC2=O)cc1 | 6.96 | 5.63 | – | – |
| O=C1NC(=O)C(c2cn(CCCn3ccnc3)c3ccccc23)=C1c1ccc(F)cc1 | 7.24 | 5.87 | 73.4% | Active |
| COc1ccc2c(c1)c(C1=C(c3ccccc3OC)C(=O)NC1=O)cn2CCCn1ccnc1 | 4.70 | 5.61 | – | – |
| Cc1ccc2c(c1)c(C1=C(c3ccc4ccccc4c3)C(=O)NC1=O)cn2CCCn1ccnc1 | 5.29 | 5.46 | – | – |
| O=C1NC(=O)C(c2cn(CCCn3ccnc3)c3ccccc23)=C1c1c[nH]c2ccccc12 | 4.64 | 5.37 | – | – |

Continued, in another order:

| pIC50 [1] | pIC50 [2] | SMILES | Activity [3] | inhibition (Mus musculus) |
| --- | --- | --- | --- | --- |
| 7.49 | 5.33 | O=C1NC(=O)C(c2cn(CCCn3ccnc3)c3ccc(Br)cc23)=C1c1ccccc1F | – | – |
| 7.00 | 4.16 | Cc1ccc2c(C3=C(c4ccccc4[N+](=O)[O-])C(=O)NC3=O)cn(CCCn3ccnc3)c2c1 | – | – |
| 6.72 | 5.68 | Cc1ccc(C2=C(c3cn(CCCn4ccnc4)c4ccc(Br)cc34)C(=O)NC2=O)cc1 | – | – |
| 7.68 | 4.66 | COc1ccccc1C1=C(c2cn(CCCn3ccnc3)c3cc(Br)ccc23)C(=O)NC1=O | – | – |
| 4.68 | 5.44 | COc1ccc2c(c1)c(C1=C(c3ccccc3F)C(=O)NC1=O)cn2CCCn1ccnc1 | – | – |
| 6.42 | 5.46 | Cc1ccc(C2=C(c3cn(CCCn4ccnc4)c4cc(Br)ccc34)C(=O)NC2=O)cc1 | – | – |
| 4.72 | 5.14 | COc1ccccc1C1=C(c2cn(CCCn3ccnc3)c3ccccc23)C(=O)NC1=O | – | – |
| 7.06 | 5.29 | Cc1ccccc1C1=C(c2cn(CCCn3ccnc3)c3ccc(Br)cc23)C(=O)NC1=O | – | – |
| 4.75 | 5.63 | O=C1NC(=O)C(c2cn(CCCn3ccnc3)c3ccccc23)=C1c1ccccc1F | – | – |
| 4.33 | 5.47 | Cc1ccc2c(c1)c(C1=C(c3ccccc3F)C(=O)NC1=O)cn2CCCn1ccnc1 | – | – |
| 7.00 | 5.40 | O=C1NC(=O)C(c2cn(CCCn3ccnc3)c3cc(Br)ccc23)=C1c1ccc2ccccc2c1 | – | – |
| 6.85 | 5.41 | Cc1ccccc1C1=C(c2cn(CCCn3ccnc3)c3cc(Br)ccc23)C(=O)NC1=O | – | – |
| 5.10 | 5.36 | COc1ccc2c(c1)c(C1=C(c3ccccc3C)C(=O)NC1=O)cn2CCCn1ccnc1 | – | – |
| 6.14 | 5.55 | O=C1NC(=O)C(c2cn(CCCn3ccnc3)c3cc(Br)ccc23)=C1c1ccc(F)cc1 | – | – |
| 5.09 | 5.44 | Cc1ccc2c(c1)c(C1=C(c3ccccc3[N+](=O)[O-])C(=O)NC1=O)cn2CCCn1ccnc1 | – | – |
| 7.22 | 5.32 | O=C1NC(=O)C(c2cn(CCCn3ccnc3)c3cc(Br)ccc23)=C1c1ccccc1F | – | – |
| 4.57 | 5.38 | Cc1ccccc1C1=C(c2cn(CCCn3ccnc3)c3ccccc23)C(=O)NC1=O | – | – |
| 7.19 | 5.09 | COc1ccccc1C1=C(c2cn(CCCn3ccnc3)c3ccc(C)cc23)C(=O)NC1=O | – | – |
| 7.96 | 4.96 | COc1ccc2c(C3=C(c4ccccc4F)C(=O)NC3=O)cn(CCCn3ccnc3)c2c1 | – | – |
| 7.16 | 5.75 | O=C1NC(=O)C(c2cn(CCCn3ccnc3)c3ccc(Br)cc23)=C1c1ccccc1 | – | – |
| 5.28 | 5.18 | COc1ccccc1C1=C(c2cn(CCCn3ccnc3)c3ccc(Br)cc23)C(=O)NC1=O | – | – |
| 7.14 | 5.42 | Cc1ccc2c(c1)c(C1=C(c3ccccc3C)C(=O)NC1=O)cn2CCCn1ccnc1 | – | – |
| 7.18 | 5.37 | O=C1NC(=O)C(c2cn(CCCn3ccnc3)c3ccc(Br)cc23)=C1c1ccccc1[N+](=O)[O-] | – | – |
| 6.64 | 5.59 | COc1ccc(C2=C(c3cn(CCCn4ccnc4)c4cc(Br)ccc34)C(=O)NC2=O)cc1 | – | – |
